pEC50: −log10 of the molar value.
experiment: Activation of BTN3A1 in human PBMC-derived Vgamma9Vdelta2 T cells assessed as induction of interleukin 2 stimulated cell proliferation by measuring increase in CD3 positive cells incubated for 3 days followed by 11 days incubation post compound wash out with subsequent stimulation with IL-2 every 3 days measured after 14 days by flow cytometr

| Compound | pEC50 |
| --- | --- |
| COP(=O)(CC/C=C(\C)CO)Oc1cccc2ccccc12 (configuration not stated) | 5.26 |
| C/C(=C\CCP(=O)(COC(=O)C(C)(C)C)Oc1cccc2ccccc12)CO (configuration not stated) | 9.10 |
| C/C(=C\CCP(=O)(COC(=O)C(C)(C)C)OCOC(=O)C(C)(C)C)CO (configuration not stated) | 8.27 |
| C/C(=C\CCP(=O)(O)Oc1cccc2ccccc12)CO | 6.21 |
| C/C(=C\CCP(=O)(O)Oc1ccccc1)CO | 6.06 |
| COP(=O)(CC/C=C(\C)CO)Oc1ccccc1 (configuration not stated) | 4.48 |
| C/C(=C\CCP(=O)(COC(=O)C(C)(C)C)Oc1ccccc1)CO (configuration not stated) | 7.85 |
